Source: patent publication EP4483866A1, “PHARMACEUTICAL COMPOSITIONS FOR THE TREATMENT OR PREVENTION OF CANCER” (Makrolife Biotech GmbH, priority 2023, dated 2025)

How the values were obtained:
MCF-7 cells = assay: Induction of apoptosis assessed by confocal fluorescence microscopy (PI staining); type: cell-based, human; details: for cell death: 12h
Description: To confirm the flow cytometry results, the induction of apoptotic cell death by our MLB007R1 compound was examined by confocal fluorescence microscopy. MCF-7 tumor cells were treated with the compound-polarized macrophages (10 000/well) at concentrations of 0, 20, 40, and 60 µg/ml for 12 hours. Induction of apoptotic cell death was accompanied by characteristic ultrastructural changes, such as chromatin condensation, nuclear fragmentation, and collapse of the cell into membrane-bound apoptotic bodies.
Confocal laser scanning microscopy (CLSM). Analysis of apoptosis-like morphological changes was performed on cells grown on coverslips and fixed with 4% paraformaldehyde in PBS (pH 7.4) for 10 minutes at room temperature (RT). After washing in PBS, the samples were stained for nuclear labeling with 2 µg/ml PI and 0.1 mg/ml RNase for 5 minutes at RT. Coverslips were mounted on glass slides in the presence of Glycerol/PBS at a ratio of 4:1 and observed with a LEICA TCS 4D confocal laser scanning microscope equipped with an argon/cripton laser and oil immersion objectives. The excitation and emission wavelengths were 488 and 590 nm, respectively. The images were recorded in pseudocolor.

[1] = system: HepG2, HUVEC, PaCA-2, MDA-MB-231, MCF-7, T24, AsPc-1, Panc-1; assay: Cell Viability Assay (MTT), tumor cells with MLB007R1 polarized macrophages; type: cell-based, human; details: for cell death: 60 µg/ml, all tumor models
Description: The following tumor models and cell lines have been used to proof the anti-tumoral properties of the derivatives of the invention: • Diagram A: HepG2 (human liver cancer cells), • Diagram B: HUVEC (human umbilical vein endothelial cells, • Diagram C: PaCA-2 (human pancreatic cancer cells), • Diagram D: MDA-MB-231 (highly aggressive, invasive and poorly differentiated triple-negative human breast cancer cells), • Diagram E: MCF-7 (human breast cancer cells), • Diagram F: T24 (human urinary bladder cancer cells), • Diagram G: AsPc-1 (human pancreatic tumor cells) and • Diagram H: Panc-1 (human pancreatic cancer cells).
In the examples, the resveratrol derivative MLB007R1 was applied at concentrations of 0 µg/ml, 10 µg/ml, 20 µg/ml, 40 µg/ml and 60 µg/ml. As a control, an underivatized agent was used at a concentration of 60 µg/ml. The dead cells were measured in percentage after 0, 12, 24 and 36 hours.
Tumor cell lines HUVEC (human umbilical vein endothelial cells), paCA-2 (human pancreatic cancer cells), MDA-MB-231 (highly aggressive, invasive and poorly differentiated triple-negative breast cancer cells), HepG2 (human liver cancer cells), MCF-7 (breast cancer cells), T24 (human urinary bladder cancer cells), AsPc-1 (human pancreatic tumor cells), Panc-1 (human pancreatic cancer cells) were seeded in 96-well plates ([…]) and divided into two groups: the untreated control group and the active compound resveratrol derivative treated group. Cells in the normal group were incubated under normal growth conditions. In the resveratrol derivative (MLB007R1) treated group, the cells were pre-incubated with differentiated and polarized macrophages (5x10^5 cells/well) for 24 hours with different final concentrations of the resveratrol derivative.
Wells were then washed three times with phosphate buffered saline (PBS) and incubated again for 4 hours with […] RPMI 1640 containing 10% fetal bovine serum. The medium was then replaced with fresh medium serially incubated with different concentrations of the lead compound and incubated with the macrophages, and the plates were incubated for 12, 24, and 36 hours. The medium containing the resveratrol derivative polarized macrophages was replaced every 12 h with freshly prepared medium. Wells were then washed three times with PBS and incubated again for 4 h, adding […] of RPMI 1640 and […] of MTT solution (5 mg/mL). After removal of the culture medium, […] of DMSO was added to dissolve the precipitate, and the absorbance at 570 nm of the resulting solutions was measured using a CODA Automated EIA Analyzer (Bio-Rad Laboratories, Hercules, CA, USA).
The cytotoxicity of the resveratrol derivative compound was evaluated on all cancer cell lines using the MTT method.

[2] = system: ovarian cancer cells (cell line A2780); assay: Viability and apoptosis of ovarian cancer cells with polarized macrophages (interference light microscopy, PI); type: cell-based, human
Description: Diagrams A and C show as a control the cells after treatment with DMSO.
Diagrams B and D show the cells treated with 60 µg/ml MLB007R1 after 12 h.
The present study explores the response of ovarian cancer cells to MLB007R1. MLB007R1 macrophages inhibited growth and induced death in human ovarian cancer cell lines. In a further course, A2780 cells were co-incubated with MLB007R1 derivative polarized macrophages and treated. MLB007R1 induces cell death and inhibits ovarian cancer cell growth. Treatment of A2780 cells with MLB007R1 induced cell death after 12 hours. Proliferation of A2780 cultures treated with MLB007R1 was analyzed over 12 hours of continuous treatment.
Cells were plated out and 60 µg/ml MLB007R1 treated macrophages were added to the culture medium 12 h after plating out (24 h preincubation period). The percentage of apoptotic cells was determined at the indicated time points by propidium iodide (PI) staining on semipermeabilized cells as previously described. In this assay, apoptotic cells are identified by hypodiploid DNA content resulting from DNA fragmentation. To assess viability, intact cells were harvested, stained with PI, and analyzed for their plasma membrane permeability to PI by flow cytometry. Cell number was determined by interference light microscopy. The ovarian cancer cells (A2780) were incubated with 60µg/ml MLB007R1 concentration treated macrophages. […]

MCF-7, HUVEC, HepG2 = assay: Determination of cell growth and viability (cell count, trypan blue exclusion); type: cell-based, human
Description: The tumor models utilized in these experiments are as follows: • Diagram A: MCF-7 (breast cancer cells), • Diagram B: HUVEC (human umbilical vein endothelial cells) and • Diagram C: HepG2 (human liver cancer cells).
Cell growth of an untreated and resveratrol derivative (MLB007R1) treated cell culture was compared. Tumor cell lines (MCF-7 (breast cancer cells), HUVEC (human umbilical vein endothelial cells) and HepG2 (human liver cancer cells)) were cultured in RPMI 1640 cell medium and exposed to 60 µg/ml resveratrol derivative polarized macrophages (10 000/ well). Cell growth, cell cycle disruption and apoptosis were assessed using the trypan blue exclusion method.
Cells were seeded in 24-well tissue culture plates (Falcon) at a concentration of 1×10^5 cells/ml and allowed to adhere overnight. […] Cell growth and viability were assessed every 12 hours. Trypsinized cells were manually counted using a hemocytometer, and cell viability was determined using the trypan blue dye exclusion assay.
Initially, cell number was measured after incubation to 200 000 cells per culture.
The kinetics of cell growth on human MCF-7 breast cancer cells were cultured and measured for 12, 24 and 36 hours in culture medium containing the indicated drug-polarized macrophages. […] Tumor cell viability and cell growth were determined using the trypan blue assay and cell count, respectively. […]

HepG2 = details: after 24 hours at 60 µM; cited from earlier work

Compound	apoptosis induction (MCF-7 cells; 20 µg/ml (B), 12 hours)	number of apoptotic cells (MCF-7 cells; 40 (C) and 60 (D) µg/ml, 12 hours)	cell death (MCF-7 cells; Diagram B: 20 µg/ml MLB007R1 treated macrophages) [%]	cell death (MCF-7 cells; Diagram C: 20 µg/ml MLB007R1 treated macrophages) [%]	cell death (MCF-7 cells; Diagram D: 60 µg/ml MLB007R1 treated macrophages) [%]	cell death ([1]; after 12h)	cell death ([1]; after 24 hours)	cell death ([1]; after 36h)	proliferation of A2780 cultures ([2]; 12 hours of continuous treatment)	ovarian cancer cells killed by polarized macrophages ([2]; macrophages incubated in 60µg/ml, 12 h)	number of tumor cells (MCF-7, HUVEC, HepG2; 60 µg/ml, after 12 hours, polarized macrophages)	decreased cell number (MCF-7, HUVEC, HepG2; after only 12 hours of incubation)	decreased HepG2 cell number (HepG2)	effect on tumor cells ([1]; control at 60 µg/ml, compared with resveratrol derivative)
C=COC(=O)COc1ccc(C=Cc2cc(OCC(=O)OC=C)cc(OCC(=O)OC=C)c2)cc1 [MLB007R1, divinyl 2,2'-((5-(4-(2-oxo-2-(vinyloxy)ethoxy)styryl)-1,3-phenylene)bis(oxy))diacetate]	No to little apoptosis induction	increased the number of apoptotic cells	> 50	> 65	> 80	70-85%	85-92%	approximately 96%	No further growth occurred	more than 80%	dramatic decrease	more than 90%	–	–
Oc1ccc(C=Cc2cc(O)cc(O)c2)cc1 [resveratrol, 3,4',5-trihydroxy-stilbene, reference compound]	–	–	–	–	–	–	–	–	–	–	–	–	approximately 70%	significantly higher
